Assay results: patent publication US12691234B2, “Methods employing gaseous nitric oxide for inhibiting tumor growth” (Beyond Air, Inc., priority 2019, dated 2026)

How the values were obtained:
4T1 cells = assay: Third inoculation with 4T1 breast cancer cells in CT26 gNO-immunized mouse; assay type: in vivo, Balb/c mouse; conditions: mouse treated with 25,000 ppm NO twice 15 minutes; 4T1 inoculated 30 days post second inoculation
Description: Balb/c mouse was inoculated with 500,000 CT26 cells to the right flank. CT26 tumor was treated with 25,000 ppm NO for 15 minutes at a flow rate of 0.25 LPM. Seven days post gas treatment, this mouse was treated once again using the same protocol. Twelve days post the first NO treatment, this mouse was re-inoculated with 500,000 CT26 cells to the left flank. A third inoculation of cancer cells was performed 30 days post the second cell inoculation, using mouse breast cancer cells, was performed as well and the growth of a third inoculation of breast cancer cells, 4T1 cells. Forty-four days post challenge assay start (second inoculation), this mouse was sacrificed, and his spleen was harvested and preserved in RPMI-based media at 4° c. until processing of it. The spleen was processed into a sterile 35 mm culture dish containing 5 ml of RPMI-based media. Any extra connective tissues or fat was trimmed from the spleen. The flat end of a plunger was used to mince the spleen by crushing the spleen to release the splenocytes. A 70 μm strainer was primed by passing 1 ml of PBS through it and placed on a sterile 50 mL conical tube. The pellet was collected and transferred through the strainer via a 5 mL serological pipette. The strainer was washed with 3 mL of RPMI-based media. Tube will be centrifuged at 300×g for 10 minutes. […]

CT26 challenge tumor = assay: Challenge assay in CT26 tumor-bearing mice; assay type: in vivo, mouse
Description: Challenge tumor inoculation: Up to 21 days after gas treatment was applied to the primary tumor, the appropriate cancer cell suspensions were prepared as described herein and inoculation of cells was repeated on the contralateral flank of the mice. Administration was performed as soon as possible following cell suspension preparation and after manual shaking prior to withdrawal of the cell suspension.
The percentage of challenge tumor take was monitored 2-3 times a week by taking a look at the inoculated site and touching this area to look for small tumors that are not yet visible. Naïve mice inoculated with tumor cells for the first time served as an internal control.
Mixing of cells was performed immediately before injection to minimize leukocyte interactions within the syringe. Mice were observed 2-3 times a week and tumor development was determined by caliper measurements of tumor dimensions as described herein. Splenocytes were extracted from a CT26 tumor-bearing mouse, which was previously treated with 25,000 ppm NO for two 15-minute courses. This mouse was re-inoculated with CT26 cancer cells 12 days post treatment. […] Tumor take of visible outgrowths was monitored 2 to 3 times per week by taking a look at the inoculated site and touching this area to look for small tumors that are not yet visible Naïve mice inoculated s.c. with 500,000 CT26 served as the control group. […]

CT-26 tumor = assay: Local gNO administration to CT26 tumor-bearing mice, primary tumor; assay type: in vivo, Balb/c mouse
Description: Test article treatment: Mice were first anesthetized by an intraperitoneal (i.p) injection of 100 mg/kg ketamine and 20 mg/kg xylazine hydrochloride solution. After 10 minutes, tumor-bearing mice were treated with the indicated dose of gNO.
In all protocols, the gas was delivered from NO in N2 cylinders. The outlet pressure was set to 2-3.5 bar using a pressure regulator that was connected directly to the cylinder.
In protocols that involve administration by needle injection, a silicone hose was connected directly to the pressure regulator on one end and to a manual or digital MFC on the other end. The flow was adjusted to 0.05 LPM-0.25 LPM. An additional silicone hose was connected to the flow controller as well as to a 23 G hypodermic needle. The needle was inserted horizontally into the center of each tumor.
Mice were inoculated subcutaneously with 5×10^5 CT-26 cells suspended in 100 μL Hank's Balanced Salt Solution (HBSS) into the low lateral side of the back. Local tumor growth was determined by measuring two mutually orthogonal tumor diameters with a caliper. The volume of the tumor was calculated using the formula: Vol=D1×D2×D2/2, where D1, D2 are two mutually orthogonal tumor diameters.
Air-1 is a female Balb/c mouse that was treated twice. On day 0 the tumor volume was 64.85 mm^3. […] This was followed by air administration for 4 minutes administered to the outer layer of the tumorusing a cap, such as shown in FIG. 11C.
NO-1 is a female Balb/c mouse and was treated once. […] Then, the skin was removed from the tumor, and the tumor was re-exposed to gNO via a perforated flask filled with gNO using the same parameters.
NO-2 is a male Balb/c mouse and was treated 3 times. On day 0 the tumor volume was 38.51 mm^3. Day 0—gNO at 50,000 ppm was administered for 3.8 minutes at a flow rate of 0.9 using a cap. Day 5: gNO at 10,000 ppm was administered for 30 minutes using a cap. Then, gNO was delivered intra-tumorally by a 23 G needle such as shown in FIG. 11B at 0.3 LPM for another 10 minutes, using an intra-tumoral channel. The tip of the needle was directed at the outside area. Day 11: gNO at 10,000 ppm was delivered to the tumor for 5 minutes and at a flow rate of 0.3 LPM, using a 23 G needle and an intra-tumoral channel.
In an additional set of experiments, aluminum disposable gas cylinders were used. A flow meter was connected directly to the cylinder, to which a gas delivery tubing was connected. The tumor was inserted into a small flask trough a 1 cm hole and a plastic holder. A small hole at the bottom of the flask enabled to lower the pressure inside the flask. […]

With `[N]=O` [gNO, nitric oxide] the “growth of a third inoculation of breast cancer cells” value (4T1 cells) was “inhibited”, the “rejection of secondary CT26 tumor cell inoculation” value (CT26 challenge tumor; 25,000 ppm 30 minutes, 50,000 ppm 10 minutes or 200,000 ppm 2-35 seconds, end of follow-up) was “all NO-treated mice rejected a secondary CT26 tumor cell inoculation” and the “tumor development after CT26 re-inoculation” value (CT26 challenge tumor; 25,000 ppm NO two 15-minute courses, re-inoculated 12 days post treatment, 44 days after challenge) was “no signs of tumor development were detected”. The “tumor in photographs after treatment” value (CT-26 tumor; 10,000 ppm gNO in flask, 0.9 LPM, 20 minutes, up to 14 days post treatment) was “the tumor was destructed”, the mice cured (CT-26 tumor; 25,000 ppm gNO intra-tumoral, 15 minutes, 0.25 LPM, repeated a week later, 44 days post the first treatment) was 50% and the “tumor 9 days after treatment” value (CT-26 tumor; 200,000 ppm gNO for 2 seconds, 0.01 LPM) was “the tumor disappeared”. For the same compound, the “size of air-treated tumor relative to gNO-treated tumors” value (CT-26 tumor; mice NO-1 and NO-2, 10,000-50,000 ppm gNO, 12 days post treatment 1) was “more than times bigger”.
